Measured values taken from patent US8933075B2, “Compounds useful as antiviral agents, compositions, and methods of use” (priority 2010, dated 2015).

tested on: A/Udorn/72 (H3N2) virus; assay: Plaque assay in MDCK cells: EC50 by reduction of plaque number; type: cell-based, influenza virus; details: MDCK

Structure (SMILES) | EC50
COc1cc(OCC(=O)N2CCC[C@H]2C(=O)O)cc(-c2cc(CCCO)c(/C=C3\SC(=S)N(C4CC5CCC4C5)C3=O)o2)c1 (stereo partly drawn) [Compound 350] | < 0.1 µM
O=C1/C(=C/c2cc(C#CCCCO)c(-c3ccc(Cl)cc3)s2)SC(=S)N1C1CC2CCC1C2 (stereo not drawn) [Compound 288] | < 0.1 µM
COc1cccc(-c2cc(C#CCCCO)c(/C=C3\SC(=S)N(C4CC5CCC4C5)C3=O)s2)c1 (stereo not drawn) [Compound 292] | < 0.1 µM
O=C1/C(=C/c2sc(-c3ccc(Cl)cc3)cc2-c2ccc(Cl)cc2)SC(=S)N1C1C2CC3CC(C2)CC1C3 (stereo not drawn) [Compound 275] | < 0.1 µM
CCOc1ccc(F)c(F)c1-c1ccc(/C=C2\SC(=S)N(C3CCCC3)C2=O)o1 [Compound 50] | < 0.1 µM
COc1cccc(-c2cc(CCCCCOC(=O)[C@H](CC(N)=O)NC(=O)OC(C)(C)C)c(/C=C3\SC(=S)N(C4CC5CCC4C5)C3=O)s2)c1 (stereo partly drawn) [Compound 313] | < 0.1 µM
COc1cccc(-c2cc(CCCOC(=O)[C@@H](CC(N)=O)NC(=O)OC(C)(C)C)c(/C=C3\SC(=S)N(C4C5CC6CC(C5)CC4C6)C3=O)o2)c1 (stereo partly drawn) [Compound 354] | < 0.1 µM
CCOC(=O)[C@@H]1CCCCN1C(=O)c1cc(-c2ccc(/C=C3\SC(=S)N(C4CC5CCC4C5)C3=O)o2)ccc1OC (stereo partly drawn) [Compound 91] | < 0.1 µM
COc1cc(OC)cc(-c2cc(/C=C/C(=O)O)c(/C=C3\SC(=S)N(C4C5CC6CC(C5)CC4C6)C3=O)o2)c1 (stereo not drawn) [Compound 131] | < 0.1 µM
CC(C)(C)N1C(=O)C[C@@H](C(=O)OCCCCCc2cc(-c3cccc(Cl)c3)sc2/C=C2\SC(=S)N(C3C4CC5CC(C4)CC3C5)C2=O)NC1=O (stereo partly drawn) [Compound 309] | < 0.1 µM
O=C1/C(=C/c2oc(-c3cccc(F)c3)cc2CCCCCO)SC(=S)N1C1C2CC3CC(C2)CC1C3 (stereo not drawn) [Compound 344] | < 0.1 µM
O=C1/C(=C/c2oc(-c3ccc(F)cc3)cc2CCCOC[C@@H](O)CO)SC(=S)N1C1CC2CCC1C2 (stereo partly drawn) [Compound 204, (Z)-3-(bicyclo[2.2.1]heptan-2-yl)-5-((3-(3-((S)-2,3-dihydroxypropoxy)propyl)-5-(4′-fluorophenyl)-furan-2-yl)methylene)-2-thioxothiazolidin-4-one] | < 0.1 µM
CCCCCc1ccc2oc(=O)c(-c3ccc(/C=C4\SC(=S)N(C5CC6CCC5C6)C4=O)o3)c(O)c2c1 (stereo not drawn) [Compound 320] | < 0.1 µM
COc1ccc(-c2ccc(/C=C3\SC(=S)N(C4CC5CCC4C5)C3=O)o2)cc1OCC(=O)N[C@@H](CCC(=O)OCc1ccccc1)C(=O)O (stereo partly drawn) [Compound 81] | < 0.1 µM
CC(C)(C)OC(=O)N[C@@H](CC(N)=O)C(=O)N1CCN(CCCCCc2cc(-c3ccc(Cl)cc3)[nH]c2/C=C2\SC(=S)N(C3CC4CCC3C4)C2=O)CC1 (stereo partly drawn) [Compound 255] | < 0.1 µM
COc1ccc(-c2cc(CCCCCO)c(/C=C3\SC(=S)N(C4C5CC6CC(C5)CC4C6)C3=O)o2)cc1 (stereo not drawn) [Compound 342] | < 0.1 µM
Nc1ccc(-c2ccc(/C=C3\SC(=S)N(C4CC5CCC4C5)C3=O)o2)cc1 (stereo not drawn) [Compound 11] | < 0.1 µM
COc1cc(OCC(=O)OC(C)(C)C)cc(-c2ccc(/C=C3\SC(=S)N(C4CC5CCC4C5)C3=O)o2)c1 (stereo not drawn) [Compound 39] | < 0.1 µM
COC(=O)COc1ccc2c(O)c(-c3ccc(/C=C4\SC(=S)N(C5C6CC7CC(C6)CC5C7)C4=O)o3)c(=O)oc2c1 (stereo not drawn) [Compound 319] | < 0.1 µM
COCOc1cc(-c2ccc(/C=C3\SC(=S)N(C4CC5CCC4C5)C3=O)o2)cc(OC)c1OC (stereo not drawn) [Compound 27] | < 0.1 µM

Structure (SMILES) | EC50
O=C1/C(=C/c2ccccc2)SC(=S)N1C1CC2CCC1C2 (stereo not drawn) [Compound 207] | 0.25 to 1 µM
COc1ccc(-c2ccc(/C=C3\SC(=S)N(C4CC5CCC4C5)C3=O)o2)cc1C(=O)N[C@@H](Cc1ccccc1)C(=O)O (stereo partly drawn) [Compound 85] | < 0.1 µM
COc1cc(OC)cc(-c2cc(CCCNC(=O)[C@H](CC(=O)OC(C)(C)C)NC(=O)OC(C)(C)C)c(/C=C3\SC(=S)N(C4CC5CCC4C5)C3=O)o2)c1 (stereo partly drawn) [Compound 158] | < 0.1 µM
CC(C)(C)OC(=O)N[C@@H](CC(N)=O)C(=O)OCCCCCc1cc(-c2ccc(Cl)cc2)[nH]c1/C=C1\SC(=S)N(C2C3CC4CC(C3)CC2C4)C1=O (stereo partly drawn) [Compound 254] | < 0.1 µM
COc1cc(OC)cc(-c2cc(CCCNC(=O)[C@H](Cc3cn(C(c4ccccc4)(c4ccccc4)c4ccccc4)cn3)NC(=O)OCC3c4ccccc4-c4ccccc43)c(/C=C3\SC(=S)N(C4CC5CCC4C5)C3=O)o2)c1 (stereo partly drawn) [Compound 161] | < 0.1 µM
COc1ccc(-c2ccc(/C=C3\SC(=S)N(C4CC5CCC4C5)C3=O)o2)cc1C(=O)N[C@@H](CC(C)C)C(=O)O (stereo partly drawn) [Compound 87] | < 0.1 µM
CC(C)(C)OC(=O)N[C@@H](CC(N)=O)C(=O)OCCCc1cc(-c2ccc(Cl)cc2)oc1/C=C1\SC(=S)N(C2CC3CCC2C3)C1=O (stereo partly drawn) [Compound 148] | < 0.1 µM
COc1cc(COc2ccc3oc(=O)c(-c4ccc(/C=C5\SC(=S)N(C6CC7CCC6C7)C5=O)s4)c(O)c3c2)cc(OC)c1 (stereo not drawn) [Compound 315] | < 0.1 µM
COc1cc(O)cc(-c2cc(CCCOC(=O)[C@H](CC(=O)OC(C)(C)C)NC(=O)OC(C)(C)C)c(/C=C3\SC(=S)N(C4CC5CCC4C5)C3=O)o2)c1 (stereo partly drawn) [Compound 149] | < 0.1 µM
O=C1/C(=C/c2ccc(-c3ccc(Cl)cc3)o2)SC(=S)N1C1C2CC3CC(C2)CC1C3 (stereo not drawn) [Compound 43] | < 0.1 µM
O=C1/C(=C/c2ccco2)SC(=S)N1C1CCCCC1 [Compound 220] | 0.25 to 1 µM
COc1cc(OC)cc(-c2cc(CCCOC(=O)[C@@H](NC(=O)OC(C)(C)C)c3ccccc3)c(/C=C3\SC(=S)N(C4CC5CCC4C5)C3=O)o2)c1 (stereo partly drawn) [Compound 146] | < 0.1 µM
O=C1/C(=C/c2cn(-c3ccc([N+](=O)[O-])cc3)cn2)SC(=S)N1C1CCCCCC1 [Compound 63] | 0.25 to 1 µM
Cn1c(/C=C2\SC(=S)N(C3CC4CCC3C4)C2=O)cc(C#CCCCOC(=O)[C@@H]2CC(=O)N(C(C)(C)C)C(=O)N2)c1-c1ccc(Cl)cc1 (stereo partly drawn) [Compound 273] | 0.1 to 0.25 µM
COc1cccc(-c2cc(CCCCCO)c(/C=C3\SC(=S)N(C4C5CC6CC(C5)CC4C6)C3=O)n2C)c1 (stereo not drawn) [Compound 263] | 0.25 to 1 µM
COc1ccc2c(O)c(-c3ccc(/C=C4\SC(=S)N(C5CC6CCC5C6)C4=O)o3)c(=O)oc2c1OC (stereo not drawn) [Compound 71] | 0.1 to 0.25 µM
COc1cc(OC)cc(-c2cc(CCCCCO)c(/C=C3\SC(=S)N(C4CC5CCC4C5)C3=O)o2)c1 (stereo not drawn) [Compound 109] | < 0.1 µM
O=C1/C(=C/c2oc(-c3cccc(F)c3)cc2CCCCCO)SC(=S)N1C1CC2CCC1C2 (stereo not drawn) [Compound 343] | < 0.1 µM
COc1cccc(-c2cc(C#CCCCOC(=O)[C@H](CC(N)=O)NC(=O)OC(C)(C)C)c(/C=C3\SC(=S)N(C4CC5CCC4C5)C3=O)s2)c1 (stereo partly drawn) [Compound 314] | < 0.1 µM
COc1cc(OC)cc(-c2cc(CCCOC(=O)[C@H](Cc3ccccc3)NC(=O)OC(C)(C)C)c(/C=C3\SC(=S)N(C4CC5CCC4C5)C3=O)o2)c1 (stereo partly drawn) [Compound 142] | < 0.1 µM

Structure (SMILES) | EC50
O=C1/C(=C/c2c[nH]c3ccccc23)SC(=S)N1C1C2CC3CC(C2)CC1C3 (stereo not drawn) [Compound 215, 3-adamantan-2-yl-5-(1H-indol-3-ylmethylene)-2-thioxo-thiazolidin-4-one] | < 0.1 µM
COc1cc(OC)cc(-c2cc(CCCCN3CCOCC3)c(/C=C3\SC(=S)N(C4CC5CCC4C5)C3=O)o2)c1 (stereo not drawn) [Compound 359] | < 0.1 µM
O=C1/C(=C/c2cc3ccccc3o2)SC(=S)N1C1CC2CCC1C2 (stereo not drawn) [Compound 217] | < 0.1 µM
O=C1/C(=C/c2ccco2)SC(=S)N1C1C2CC3CC(C2)CC1C3 (stereo not drawn) [Compound 209, (Z)-3-(adamantan-2-yl)-5-(furan-2-ylmethylene)-2-thioxothiazolidin-4-one] | 0.25 to 1 µM
O=C1/C(=C/c2oc(-c3ccc(F)cc3)cc2CCCCO)SC(=S)N1C1CC2CCC1C2 (stereo not drawn) [Compound 115] | < 0.1 µM
O=C1/C(=C/c2ccc(-c3c(O)c4ccc(O)cc4oc3=O)o2)SC(=S)N1C1CC2CCC1C2 (stereo not drawn) [Compound 324] | < 0.1 µM
O=C1/C(=C/c2ccc(-c3c(O)c4cc(OCc5ccc(Cl)cc5)ccc4oc3=O)o2)SC(=S)N1C1CC2CCC1C2 (stereo not drawn) [Compound 321] | < 0.1 µM
CC(C)(C)N1C(=O)C[C@@H](C(=O)OCCCCCc2cc(-c3ccc(Cl)cc3)[nH]c2/C=C2\SC(=S)N(C3C4CC5CC(C4)CC3C5)C2=O)NC1=O (stereo partly drawn) [Compound 251] | < 0.1 µM
O=C1/C(=C/c2ccc(-c3c(O)c4cc(O)ccc4oc3=O)o2)SC(=S)N1C1CC2CCC1C2 (stereo not drawn) [Compound 325] | < 0.1 µM
COc1cc(OC)cc(-c2cc(CCCn3cc(CO)nn3)c(/C=C3\SC(=S)N(C4C5CC6CC(C5)CC4C6)C3=O)o2)c1 (stereo not drawn) [Compound 199, (Z)-3-(adamantan-2-yl)-5-((5-(3′,5′-dimethoxyphenyl)-3-(3-(4′-(hydroxymethyl)-1H-1′,2′,3′-triazol-1-yl)-propyl)furan-2-yl)methylene)-2-thioxothiazolidin-4-one] | < 0.1 µM
O=C1/C(=C/c2cc3ccccc3o2)SC(=S)N1C1C2CC3CC(C2)CC1C3 (stereo not drawn) [Compound 218, 3-adamantan-2-yl-5-benzofuran-2-ylmethylene-2-thioxo-thiazolidin-4-one] | < 0.1 µM
O=C1/C(=C/c2oc(-c3cccc(Cl)c3)cc2CCCCCO)SC(=S)N1C1C2CC3CC(C2)CC1C3 (stereo not drawn) [Compound 346] | < 0.1 µM
COc1cc(OC)cc(-c2cc(CCCOC(C)=O)c(/C=C3\SC(=S)N(C4CC5CCC4C5)C3=O)o2)c1 (stereo not drawn) [Compound 97] | < 0.1 µM
COc1cc(OC)cc(-c2cc(CCCCOC(=O)[C@]3(O)C[C@@H](O)[C@@H](O)[C@H](O)C3)c(/C=C3\SC(=S)N(C4CC5CCC4C5)C3=O)o2)c1 (stereo partly drawn) [Compound 357] | < 0.1 µM
O=C1/C(=C/c2ccc(-c3ccc(Cl)cc3)o2)SC(=S)N1C1CCCC1 [Compound 48] | < 0.1 µM
COc1cccc(-c2cc(CCCO)c(/C=C3\SC(=S)N(C4CC5CCC4C5)C3=O)n2C)c1 (stereo not drawn) [Compound 264] | 0.25 to 1 µM
O=C1/C(=C/c2oc(-c3ccc(F)cc3)cc2CCCN2CCOCC2)SC(=S)N1C1CC2CCC1C2 (stereo not drawn) [Compound 180] | < 0.1 µM
COc1ccc(-c2ccc(/C=C3\SC(=S)N(C4CC5CCC4C5)C3=O)o2)cc1 (stereo not drawn) [Compound 8] | < 0.1 µM
COc1ccc(-c2ccc(/C=C3\SC(=S)N(C4CC5CCC4C5)C3=O)o2)cc1C(=O)N[C@@H](Cc1cnc[nH]1)C(=O)O (stereo partly drawn) [Compound 88] | < 0.1 µM
O=C(O)c1ccc(-c2ccc(/C=C3\SC(=S)N(C4CC5CCC4C5)C3=O)o2)cc1 (stereo not drawn) [Compound 4] | < 0.1 µM
